In patent publication US10301288B2, “Kinase inhibitors” (Topivert Pharma Limited, priority 2013, dated 2019):
Where two headings read alike, the source gives them in different places.

How the values were obtained:
kinases = assay: KinomeScan selectivity scores / number of hits; format: binding
Procedure: These assays may be conducted by DiscoverX (formerly Ambit; San Diego, Calif.). The percentage inhibition produced by incubation with a test compound may be calculated relative to the non-inhibited control.

d-U937 cells = assay: (a) LPS-induced TNFα/IL-8 release in d-U937 cells; format: cell-based; details: Homo sapiens, dU937 cells
Procedure: U937 cells, a human monocytic cell line, are differentiated into macrophage-type cells by incubation with PMA (100 ng/mL) for 48 to 72 hr. Cells are pre-incubated with final concentrations of test compound for 2 hr and are then stimulated with LPS (0.1 μg/mL; from E. Coli: O111:B4, Sigma) for 4 hr. The supernatant is collected for determination of TNFα and IL-8 concentrations by sandwich ELISA (Duo-set, R&D systems). […] The relative 50% effective concentration (REC50) is determined from the resultant concentration-response curve. The inhibition of IL-8 production is calculated at each concentration of test compound by comparison with vehicle control.

PBMCs = assay: (b) LPS-induced TNFα/IL-8 release in PBMC cells; format: cell-based; details: Homo sapiens
Naïve CD4+ T cells = assay: (g) T cell proliferation; format: cell-based; details: Homo sapiens, assay (g), read-out: IC50 for inhibition of T cell proliferation
Procedure: PBMCs from healthy subjects are separated from whole blood using a density gradient (Lymphoprep, Axis-Shield Healthcare). The lymphocyte fraction is first enriched for CD4+ T cells by negative magnetic cell sorting as per the manufacturer's instructions (Miltenyi Biotec 130-091-155). Naïve CD4+ T cells are then separated using positive magnetic selection of CD45RA+ cells using microbeads as per the manufacturer's instructions (130-045-901). Cells are plated at 2×10^5 cells per well in 100 μL RPMI/10% FBS on 96 well flat bottomed plate (Corning Costar). 25 μL of test compound are diluted to the appropriate concentration (8× final conc.) in normal medium and added to duplicate wells on the plate to achieve a dose response range of 0.03 ng/mL-250 ng/mL. DMSO is added as a negative control. Plates are allowed to pre-incubate for 2 hours before stimulation with 1 μg/mL anti-CD3 (OKT3; eBioscience). After 72 h, the medium in each well is replaced with 150 μL of fresh medium containing 10 μM BrdU (Roche). […] The reaction is stopped by addition of 50 μL of 1 M H2SO4, and read for absorbance at 450 nm on a plate reader (Varioskan® Flash, ThermoFisher Scientific). The IC50 is determined from the dose response curve.

[1] = Cryopreserved hepatocyte stability, rat; format: in vitro ADME; details: pooled cryopreserved hepatocytes, read-out: Mean intrinsic clearance
Procedure: (§1) Formulae Clint(tissue clearance) mL/min/kg=[0.693/t½ (min)]×[1/microsomal protein concentration mg/mL]×[mg microsomes/g liver]×[g liver/kg body weight] […] The incubations were performed at 37° C. with 100 μL, samples taken from the incubation, at 0, 10, 20, 45 and 90 minutes, and reactions terminated by addition of 100 μL of acetonitrile containing carbamazepine as analytical internal standard. […] Half-life values were calculated from the relationship T1/2 (min)=−0.693/λ • where λ was the slope of the Ln concentration vs time curve. • Standard compounds testosterone, midazolam and 4-methylumbelliferone are included in the assay design.
(§2) Clint(Tissue Clearance) mL/min/kg=[0.693/t½(min)]×[1/hepatocyte concentration (million cells/mL)]×[million cells/g liver]×[g liver/kg body weight] Clint(Hepatic clearance) mL/min/kg=hepatic blood flow×Clint/(hepatic blood flow+Clint) Hepatic extraction ratio(Eh)=Clint(Hepatic clearance) mL/min/kg/hepatic blood flow (mL/min/kg)

[2] = Cryopreserved hepatocyte stability, Cynomolgus macaque; format: in vitro ADME; details: pooled cryopreserved hepatocytes, read-out: Mean intrinsic clearance
Procedure: as §1, §2

[3] = Analysis of metabolites in hepatocytes; format: in vitro ADME, rat, dog, Cynomolgus macaque, human; details: 10 μM, hepatocytes of four species, 0, 60 and 90 minutes
Procedure: Studies were conducted by BioFocus (Saffron Walden, UK) to determine the metabolic fate of the compound of Example 2 following incubation with rat, dog, Cynomolgus macaque or human hepatocytes.
Sample replicates were pooled prior to analysis.
Potential metabolites were identified using time-of-flight (TOF) and triple quadruple (TQ) mass spectrometers.

[4] = read-out: IC50 for Inhibition of Cytokine Release, IL-8
[5] = read-out: IC50 for Inhibition of Cytokine Release, TNFα

For `C#Cc1cc(Nc2nccc(Oc3ccc(NC(=O)Nc4cc(C(C)(C)C)nn4-c4ccc(C)cc4)c4ccccc34)n2)cc(C(=O)NCCOCCOCCOC)c1` [Example 2, 3-((4-((4-(3-(3-(tert-Butyl)-1-(p-tolyl)-1H-pyrazol-5-yl)ureido)naphthalen-1-yl)oxy)pyrimidin-2-yl)amino)-5-ethynyl-N-(2-(2-(2-methoxyethoxy)ethoxy)ethyl)-benzamide], the “KinomeScan S(1) number of hits” value (kinases; 50 nM) was 0, the “KinomeScan S(10) number of hits” value (kinases; 50 nM) was 8 and the “KinomeScan S(35) number of hits” value (kinases; 50 nM) was 32. For the same molecule, the “KinomeScan S(1) number of hits” value (kinases; 500 nM) was 4, the “KinomeScan S(10) number of hits” value (kinases; 500 nM) was 39 and the “KinomeScan S(35) number of hits” value (kinases; 500 nM) was 92. The IC50 (d-U937 cells; [4]) was 0.5 nM, the IC50 (d-U937 cells; [5]) was 0.5 nM and the IC50 (PBMCs; [4]) was 2 nM. The IC50 (PBMCs; [5]) was 0.7 nM, the IC50 (Naïve CD4+ T cells) was 2.7 nM and the hepatocyte CLint at 0.1 μM [1] was 49 µL/min/1e6 cells. For the same molecule, the hepatocyte CLint at 0.1 μM [2] was 43 µL/min/1e6 cells and the “total metabolites identified in all studies” value [3] was “nine”.
